Where two headings read alike, the source gives them in different places.
Experiments:
LPXTGase [1] = experiment: Periodate treatment of LPXTGase, enzyme activity measured; assay type: biochemical, Streptococcus pyogenes; details: 5 mM periodate, 20 mM phosphate buffer pH 6, 4 hrs at 4° C.
Method: Carbohydrate composition of LPXTGase. The carbohydrate composition of purified LPXTGase was determined by the Rockefeller University Analytical Service Laboratory using a Waters 490 HPLC system. […] It seemed plausible that the charged amino acids of the enzyme are internalized and the hydrophobic amino acids are located on the exterior surface in view of the fact that the enzyme is likely to be associated with the cell membrane. […] To test this, the enzyme was incubated with 5 mM of periodate in 20 mM phosphate buffer, pH 6, for 4 hrs at 4° C., and enzyme activity was measured.

trypsin = experiment: Periodate treatment of trypsin, enzyme activity measured; assay type: biochemical; details: identical manner (5 mM periodate, pH 6, 4 hrs at 4° C.)
LPXTGase [2] = assay type: biochemical, Streptococcus pyogenes; details: for peptide cleaved, cpm: 40 mM Tris-HCl pH 7.6, 0.1% Brij 35, control 41,530 cpm
Method: Enzyme Assay Method: Aliquots (10 μl) were removed from the column fractions and added to 1.5 ml Microfuge tubes. To each tube was added 30 μl of 40 mM Tris-HCl buffer, pH 7.6, containing 0.1% Brij 35, followed by a 10 μl suspension of bead-bound LPXTG-peptide substrate (0.5 to 0.8 μg, 100,000 to 200,000 cpm). The reaction mixture was incubated with vigorous shaking for 60 min at 37° C. After this time, 100 μl of water was added to each tube, and after vortex mixing, the mixture was centrifuged at 10,000 rpm for 5 min to pellet the beads. 100 μl of the supernatant was withdrawn and radioactivity was counted with a gamma counter.
The LPXTGase was exposed to a variety of salts and its activity tested for cleavage of the LPXTG (SEQ ID NO:1)-containing peptide.

[3] = 100 mM salt, one hour at 37° C.

Row | Structure (SMILES) | peptide cleaved, cpm (LPXTGase [2]; [3]) | % of control (LPXTGase activity) (LPXTGase [2]) [%] | peptide cleaved, cpm (LPXTGase [2]; 20 mM salt, one hour at 37° C.) | further results
1 | [O-][I+3]([O-])([O-])O [periodate] | – | – | – | effect of periodate treatment on LPXTGase enzyme activity (LPXTGase [1]): nearly completely abolished the enzyme activity; effect of periodate treatment on trypsin enzyme activity (trypsin): no effect
2 | [Cl-].[Na+] [Sodium chloride] | 6,720 cpm | – | – | % of control (LPXTGase activity) (LPXTGase [2]; [3]): 16%
3 | O=S(=O)([O-])[O-].[Na+].[Na+] [Sodium sulfate] | – | 57 | 23,454 cpm | –
4 | [Cl-].[K+] [Potassium chloride] | 8,608 cpm | – | – | % of control (LPXTGase activity) (LPXTGase [2]; [3]): 20%
5 | [Cl-].[Cl-].[Mg+2] [Magnesium chloride] | – | 20 | 8,615 cpm | –
6 | [Ca+2].[Cl-].[Cl-] [Calcium chloride] | – | 23 | 9,706 cpm | –
7 | Cl.NO [Hydroxylamine-HCl] | 11,200 cpm | 27 | – | effect on LPXTGase activity (general statement) (LPXTGase [2]): inhibited
8 | O=C(O)CN(CCN(CC(=O)O)CC(=O)O)CC(=O)O [EDTA] | – | 5.2 | 2,147 cpm | –
9 | O=P(O)(O)O [Sodium phosphate] | – | 49 | 20,646 cpm | –
10 | Cl.Cl.NCCCCN [Putrescene chloride] | – | – | 8,710 cpm | % of control (LPXTGase activity) (LPXTGase [2]; 20 mM salt, one hour at 37° C.): 21%

Reference: patent publication US7604975B2, “Glycosylated LPXTGases and uses thereof” (priority 2002, dated 2009)
